From patent publication US11224601B1, “Compounds that inhibits MCL-1 protein” (priority 2017, dated 2022)
Read-outs that look alike come from different tables or passages of the source.

How the values were obtained:
OPM-2 Luc cells [1] = assay: Tumor Pharmacodynamics (PD) model; assay type: in vivo; conditions: dosed orally to female athymic nude mice inoculated with OPM-2 Luc cells; compared with Reference Compound 1
From the text: Tumor Pharmacodynamics (PD)
FIGS. 1-7 illustrate the PD results of the cited Examples. The Reference Compound 1, an internal Amgen MC1-1 inhibitor compound made by one of the general schemes outlined in U.S. Pat. No. 9,562,061, herein incorporated by reference, is (1S,3′R,6′R,7′S,8′E,12′R)-6-chloro-12′-ethyl-7′-methoxy-3,4-dihydro-2H,15′H-spiro[naphthalene-1,22′-[20]oxa[13]thia[1,14]diazatetracyclo[14.7.2.0˜3,6˜.0˜19,24˜]pentacosa[8,16,18,24]tetraen]-15′-one 13′,13′-dioxide

[2] = molecular target: recombinant human Mcl-1 (Mcl-1/Bim interaction) (Homo sapiens (Human), UniProt Q07820); assay: biochemical; assay type: binding; conditions: cell free Mcl-1:Bim TR-FRET; read-out: Mcl-1 HTRF IC50
recombinant human Mcl-1 (Mcl-1/Bim interaction), sequence (Q07820 171-327): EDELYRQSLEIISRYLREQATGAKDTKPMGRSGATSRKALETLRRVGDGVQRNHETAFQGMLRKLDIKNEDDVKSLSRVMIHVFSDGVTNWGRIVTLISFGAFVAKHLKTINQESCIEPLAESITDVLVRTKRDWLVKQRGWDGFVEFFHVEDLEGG

OPM-2 Luc cells [3] = assay: OPM-2 xenograft efficacy model; assay type: in vivo; conditions: dosed orally to female athymic nude mice inoculated with OPM-2 Luc cells
[4] = system: OPM-2 human multiple myeloma cell line; assay: Cell Viability Assay (OPM-2 10 FBS), CellTiter-Glo; assay type: cell-based
Summary of the method: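 Compounds, serially diluted, were left on OPM-2 cells (3000 cells/well, 10% FBS RPMI 1640) for 16 h at 37° C. under 5% CO2.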

[5] = Homo sapiens, OPM-2, 16 h, read-out: OPM-2 10% FBS IC50 IP (μM), OPM-2 cells, 10% FBS, 16 h, CellTiter-Glo

Row | Compound | in vivo efficacy in a tumor PD model relative to Reference Compound 1 (OPM-2 Luc cells [1]) | IC50 [2] | in vivo efficacy in an OPM-2 xenograft efficacy model (OPM-2 Luc cells [3]) | IC50 [4, 5] | IC50 ([4]; read-out: OPM-2 10% FBS IC50 IP, OPM-2 cells, 10% FBS, 16 h, CellTiter-Glo)
1 | CCO[C@]1(CN2CCN(C3COC3)CC2)/C=C/C[C@H](C)[C@@H](C)S(=O)(=O)NC(=O)c2ccc3c(c2)N(C[C@@H]2CC[C@H]21)C[C@@]1(CCCc2cc(Cl)ccc21)CO3 [Example 2, (1S,3′R,6′R,7′R,8′E,11′S,12′R)-6-chloro-7′-ethoxy-11′,12′-dimethyl-7′-((4-(3-oxetanyl)-1-piperazinyl)methyl)-3,4-dihydro-2H,15′H-spiro[naphthalene-1,22′-[20]oxa[13]thia[1,14]diazatetracyclo[14.7.2.0˜3,6˜.0˜19,24˜]pentacosa[8,16,18,24]tetraen]-15′-one 13′,13′-dioxide] | superior in vivo efficacy | 109 pM | – | – | –
2 | CCO[C@]1(CN2CCN3CCOC[C@@H]3C2)/C=C/C[C@H](C)[C@@H](CCOC)S(=O)(=O)NC(=O)c2ccc3c(c2)N(C[C@@H]2CC[C@H]21)C[C@@]1(CCCc2cc(Cl)ccc21)CO3 [Example 13, (1S,3′R,6′R,7′R,8′E,11′S,12′R)-6-chloro-7′-ethoxy-7′-((9aS)-hexahydropyrazino[2,1-c][1,4]oxazin-8(1H)-ylmethyl)-12′-(2-methoxyethyl)-11′-methyl-3,4-dihydro-2H,15′H-spiro[naphthalene-1,22′-[20]oxa[13]thia[1,14]diazatetracyclo[14.7.2.0˜3,6˜.0˜19,24˜]pentacosa[8,16,18,24]tetraen]-15′-one 13′,13′-dioxide] | superior in vivo efficacy | 94 pM | in vivo efficacy | – | –
3 | CCO[C@]1(CN2CCN3CCOC[C@@H]3C2)/C=C/C[C@H](C)[C@@H](C)S(=O)(=O)NC(=O)c2ccc3c(c2)N(C[C@@H]2CC[C@H]21)C[C@@]1(CCCc2cc(Cl)ccc21)CO3 [Example 1, (1S,3′R,6′R,7′R,8′E,11′S,12′R)-6-chloro-7′-ethoxy-7′-((9aS)-hexahydropyrazino[2,1-c][1,4]oxazin-8(1H)-ylmethyl)-11′,12′-dimethyl-3,4-dihydro-2H,15′H-spiro[naphthalene-1,22′-[20]oxa[13]thia[1,14]diazatetracyclo[14.7.2.0˜3,6˜.0˜19,24˜]pentacosa[8,16,18,24]tetraen]-15′-one 13′,13′-dioxide] | superior in vivo efficacy | – | – | 0.085 µM | –
4 | CO[C@@]1(CN2CCN3CCOC[C@@H]3C2)/C=C/C[C@H](C)[C@@H](C)S(=O)(=O)NC(=O)c2ccc3c(n2)N(C[C@@H]2CC[C@H]21)C[C@@]1(CCCc2cc(Cl)ccc21)CO3 [Example 18, (1S,3′R,6′R,7′S,8′E,11′S,12′R)-6-chloro-7′-((9aS)-hexahydropyrazino[2,1-c][1,4]oxazin-8(1H)-ylmethyl)-7′-methoxy-11′,12′-dimethyl-3,4-dihydro-2H,15′H-spiro[naphthalene-1,22′-[20]oxa[13]thia[1,14,25]triazatetracyclo[14.7.2.0˜3,6˜.0˜19,24˜]pentacosa[8,16,18,24]tetraen]-15′-one 13′,13′-dioxide] | superior in vivo efficacy | 60 pM | in vivo efficacy | 0.022 µM | –
5 | CCO[C@]1(CN2CCN(C3COC3)CC2)/C=C/C[C@H](C)[C@@H](CCOC)S(=O)(=O)NC(=O)c2ccc3c(c2)N(C[C@@H]2CC[C@H]21)C[C@@]1(CCCc2cc(Cl)ccc21)CO3 [Example 14, (1S,3′R,6′R,7′R,8′E,11′S,12′R)-6-chloro-7′-ethoxy-12′-(2-methoxyethyl)-11′-methyl-7′-((4-(3-oxetanyl)-1-piperazinyl)methyl)-3,4-dihydro-2H,15′H-spiro[naphthalene-1,22′-[20]oxa[13]thia[1,14]diazatetracyclo[14.7.2.0˜3,6˜.0˜19,24˜]pentacosa[8,16,18,24]tetraen]-15′-one 13′,13′-dioxide] | superior in vivo efficacy | 80 pM | – | – | –
6 | (1S,3′R,6′R,7′R,8′E,11′S,12′R)-6-chloro-7′-((9aS)-hexahydropyrazino[2,1-c][1,4]oxazin-8(1H)-ylmethyl)-7′-methoxy-12′-(2-methoxyethyl)-11′-methyl-3,4-dihydro-2H,15′H-spiro[naphthalene-1,22′-[20]oxa[13]thia[1,14]diazatetracyclo[14.7.2.0˜3,6˜.0˜19,24˜]pentacosa[8,16,18,24]tetraen]-15′-one 13,13′-dioxide [Example 11] | – | – | in vivo efficacy | – | 0.051 µM
